# Laboratory results taken from PMC7010297, “How the initiating ribosome copes with ppGpp to translate mRNAs” (PLoS Biology, 2020).
# Where “and” joins values, the source holds several entries; their conditions need not be identical. Identical values can stand only once.
# What was measured:
# [1] = molecular target: T1, 30S IC (30S-bound IF2, Bpy-tRNAi) (Escherichia coli, UniProt P0A705); assay: 30S IC formation measured by MST at increasing concentrations of IF2 with guanosine nucleotides; type: binding; conditions: Fig 2A
# T1 construct: 6xHis (N); made in house
# Description: (§1) To monitor the interaction of initiator tRNA and 30S ribosomal subunits, we used Microscale Thermophoresis (MST) with a fluorescently labelled initiator tRNA (Bpy-tRNAi) (Fig 1B). MST allows to measure fluorescence in a constrained space. Changes on the readout derive from molecular drifts resulting from small thermal equilibrium perturbations. Upon equilibrium perturbations, the patterns of Bpy-tRNAi migration away from the observation space are related to bound and unbound states (Fig 1B). […] On the contrary, a decrease in thermophoresis indicated the dissociation of Bpy-tRNAi. The relation between fluorescence measured at both equilibriums (Ff to Fi, after and prior to the perturbation, respectively) as a function of ligand concentration allowed to determine dissociation constants of the interaction (Fig 1C).
# (§2) Continuous lines indicate nonlinear regression fittings with a quadratic equation. Three measurements were performed; mean and standard deviation are plotted (S1 Data). (B) as (A) to measure the concentration dependence for each tested guanosine nucleotide at constant IF2 (1 μM). […] Continuous lines show best fits using exponential functions. (D) Formation of 70S IC as measured by Bpy-tRNAi accommodation in the P site of the ribosome; 0.1 μM 30S ICs were formed with Bpy-tRNAi and rapidly mixed with 0.3 μM 50S subunits on a stopped-flow apparatus as described in [14]. Colors are as in (C). Continuous lines show best fits using an exponential function for a single reaction step. Each stopped-flow trace results from the mean of 5 to 7 replicates.
# IF2-bound 30S IC = molecular target: T2, IF2-bound 30S IC (Escherichia coli, UniProt P0A705); assay: 30S IC formation by MST, guanosine nucleotide titration; type: binding; conditions: for MST Average / MST Replicates (a.u.): Fig 2B;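 as to MST Average: lower thermophoresis signal means Bpy-tRNAi dissociation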;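 as to MST Replicates (a.u.): lower thermophoresis signal means Bpy-tRNAi dissociation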
# T2 construct: 6xHis (N); made in house
# Description: as §1, §2
# MST was calculated from the respective fluorescence time dependencies (S3 Fig). […] Symbols as in (B). […] Continuous lines indicate nonlinear regression fittings with quadratic (B and E) or same-site competition (G) functions. Three measurements were performed; mean and standard deviations are plotted (S1 Data).
# [2] = molecular target: T3, 70S pre-IC (50S joining to 30S IC) (Escherichia coli, UniProt P0A705); assay: 70S pre-IC formation by light scattering, stopped-flow; type: biochemical; conditions: 30S complexes formed with 0.2 mM nucleotide, mixed with 50S subunits
# T3 construct: 6xHis (N); made in house
# Description: as §2
# (§3) (A) Scheme of 70S IC formation. […] Time traces were analyzed by nonlinear regression with exponential terms. […] Formation of 70S IC, as measured by Bpy-tRNAi accommodation in the absence (F) or presence of 200 μM ppGpp (G). Time traces were analyzed by nonlinear regression with one exponential term. […] Continuous lines show best fits using an exponential function for a single reaction step. All time traces are mean values of 5 to 10 replicates. Bar graphs show mean and standard errors (error bars) derived from the nonlinear regression fitting (D,E,H,I) (S1 Data).
# (§4) To measure 70S pre-IC formation, a SX-20 stopped-flow instrument (Applied Photophysics, Leatherhead, UK) was set up for LS recording with an excitation wavelength of 430 nm. Scattered light was measured at an angle of 90° without a filter. Pseudo first-order conditions were approximated by using ≥3-fold excess of 50S subunits over 30S ICs; 0.2 μM 30S ICs were rapidly mixed in the instrument with 0.6 μM 50S at 25 °C. Bpy-tRNAi accommodation was measured essentially as described elsewhere. Briefly, 0.2 μM 30S ICs were formed using Bpy-tRNAi and rapidly mixed with 0.6 μM 50S at 25 °C. Fluorescence was excited at 470 nm and measured after a 495-nm longpass filter. Individual traces (6–11 traces) were averaged, and the resulting kinetic curve was approximated by single (F = A0 + A1*exp (-kapp1*t)) or double (F = A0 + A1*exp (-kapp1*t) + A2*exp (-kapp2*t)) exponential fit using Graphpad Prism 6.0 software (GraphPad, San Diego, California).
# 70S IC = molecular target: T4, 70S IC (Escherichia coli, UniProt P0A705); assay: 70S IC formation by Bpy-tRNAi accommodation, stopped-flow; type: biochemical
# T4 construct: 6xHis (N); made in house
# Description: as §2, §3, §4
# T1 sequence (P0A705 whole entry, looked up): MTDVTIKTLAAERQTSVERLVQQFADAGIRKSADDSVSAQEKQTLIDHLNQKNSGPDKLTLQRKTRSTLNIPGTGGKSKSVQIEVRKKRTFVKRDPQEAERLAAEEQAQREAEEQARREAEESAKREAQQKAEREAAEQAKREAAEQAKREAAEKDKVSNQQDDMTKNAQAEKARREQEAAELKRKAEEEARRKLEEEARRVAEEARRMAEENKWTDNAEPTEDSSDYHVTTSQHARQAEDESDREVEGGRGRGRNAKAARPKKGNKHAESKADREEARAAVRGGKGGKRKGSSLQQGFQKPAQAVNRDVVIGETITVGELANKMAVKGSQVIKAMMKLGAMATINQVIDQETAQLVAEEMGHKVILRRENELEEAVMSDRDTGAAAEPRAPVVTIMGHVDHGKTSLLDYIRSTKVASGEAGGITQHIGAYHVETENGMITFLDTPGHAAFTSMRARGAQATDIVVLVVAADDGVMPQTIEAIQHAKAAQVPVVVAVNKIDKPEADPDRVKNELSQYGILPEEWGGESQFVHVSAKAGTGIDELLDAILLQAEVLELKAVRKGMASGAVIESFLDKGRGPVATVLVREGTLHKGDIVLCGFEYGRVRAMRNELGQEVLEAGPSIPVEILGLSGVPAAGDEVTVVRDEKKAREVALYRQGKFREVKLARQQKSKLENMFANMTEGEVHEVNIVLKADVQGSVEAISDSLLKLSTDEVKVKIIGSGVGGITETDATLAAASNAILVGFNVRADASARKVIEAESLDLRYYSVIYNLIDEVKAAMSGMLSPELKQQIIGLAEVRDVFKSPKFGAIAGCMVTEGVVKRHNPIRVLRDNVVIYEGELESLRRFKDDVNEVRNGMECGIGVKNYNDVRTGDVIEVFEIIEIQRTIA
# T2 sequence (P0A705 whole entry, looked up): as above
# T4 sequence (P0A705 whole entry, looked up): as above
# T3 sequence (P0A705 whole entry, looked up): as above
smiles,measurement,setting,value
Nc1nc2c(ncn2[C@@H]2O[C@H](COP(=O)(O)OP(=O)(O)OP(=O)(O)O)[C@@H](OP(=O)(O)OP(=O)(O)O)[C@H]2O)c(=O)[nH]1 [pppGpp],MST Average,[1]; IF2 0.16 µM,944.96 a.u.
same,MST Replicates (a.u.),"[1]; IF2 0.16 µM, in the presence of the nucleotide",945.84 a.u. (2×) and 943.18 a.u.
same,MST Average,[1]; IF2 0.31 µM,951.85 a.u.
same,MST Replicates (a.u.),[1]; IF2 0.31 µM,948.28 a.u. and 951.55 a.u. and 955.73 a.u.
same,MST Average,[1]; IF2 0.63 µM,965.81 a.u.
same,MST Replicates (a.u.),[1]; IF2 0.63 µM,963.82 a.u. and 965.27 a.u. and 968.34 a.u.
same,MST Average,[1]; IF2 1.25 µM,989.55 a.u.
same,MST Replicates (a.u.),[1]; IF2 1.25 µM,985.24 a.u. and 988.50 a.u. and 994.92 a.u.
same,MST Average,[1]; IF2 2.50 µM,1020.82 a.u.
same,MST Replicates (a.u.),[1]; IF2 2.50 µM,1014.01 a.u. and 1021.45 a.u. and 1027.00 a.u.
same,MST Average,[1]; IF2 5.00 µM,1015.83 a.u.
same,MST Replicates (a.u.),[1]; IF2 5.00 µM,1011.56 a.u. and 1015.17 a.u. and 1020.77 a.u.
same,MST Average,IF2-bound 30S IC; nucleotide 0.005 µM,927.64 a.u.
same,MST Replicates (a.u.),"IF2-bound 30S IC; nucleotide 0.005 µM, constant IF2 (1 μM)",925.66 a.u. and 928.15 a.u. and 929.12 a.u.
same,MST Average,IF2-bound 30S IC; nucleotide 0.01 µM,929.62 a.u.
same,MST Replicates (a.u.),IF2-bound 30S IC; nucleotide 0.01 µM,928.28 a.u. and 930.44 a.u. and 930.13 a.u.
same,MST Average,IF2-bound 30S IC; nucleotide 0.02 µM,931.44 a.u.
same,MST Replicates (a.u.),IF2-bound 30S IC; nucleotide 0.02 µM,929.17 a.u. and 931.64 a.u. and 933.52 a.u.
same,MST Average,IF2-bound 30S IC; nucleotide 0.04 µM,936.26 a.u.
same,MST Replicates (a.u.),IF2-bound 30S IC; nucleotide 0.04 µM,935.68 a.u. and 936.43 a.u. and 936.67 a.u.
same,MST Average,IF2-bound 30S IC; nucleotide 0.08 µM,942.88 a.u.
same,MST Replicates (a.u.),IF2-bound 30S IC; nucleotide 0.08 µM,942.08 a.u. and 943.53 a.u. and 943.02 a.u.
same,MST Average,IF2-bound 30S IC; nucleotide 0.16 µM,950.27 a.u.
same,MST Replicates (a.u.),IF2-bound 30S IC; nucleotide 0.16 µM,947.31 a.u. and 952.19 a.u. and 951.31 a.u.
same,MST Average,IF2-bound 30S IC; nucleotide 0.31 µM,960.78 a.u.
same,MST Replicates (a.u.),IF2-bound 30S IC; nucleotide 0.31 µM,960.77 a.u. and 960.89 a.u. and 960.69 a.u.
same,MST Average,IF2-bound 30S IC; nucleotide 0.63 µM,981.69 a.u.
same,MST Replicates (a.u.),IF2-bound 30S IC; nucleotide 0.63 µM,982.02 a.u. and 981.68 a.u. and 981.38 a.u.
same,MST Average,IF2-bound 30S IC; nucleotide 1.25 µM,1004.44 a.u.
same,MST Replicates (a.u.),IF2-bound 30S IC; nucleotide 1.25 µM,1006.47 a.u. and 1004.17 a.u. and 1002.69 a.u.
same,MST Average,IF2-bound 30S IC; nucleotide 2.50 µM,1012.89 a.u.
same,MST Replicates (a.u.),IF2-bound 30S IC; nucleotide 2.50 µM,1008.41 a.u. and 1015.77 a.u. and 1014.48 a.u.
same,MST Average,IF2-bound 30S IC; nucleotide 5.00 µM,1025.14 a.u.
same,MST Replicates (a.u.),IF2-bound 30S IC; nucleotide 5.00 µM,1023.12 a.u. and 1027.23 a.u. and 1025.07 a.u.
same,MST Average,IF2-bound 30S IC; nucleotide 10.00 µM,1030.92 a.u.
same,MST Replicates (a.u.),IF2-bound 30S IC; nucleotide 10.00 µM,1031.01 a.u. and 1031.12 a.u. and 1030.63 a.u.
same,MST Average,IF2-bound 30S IC; nucleotide 20.00 µM,1013.38 a.u.
same,MST Replicates (a.u.),IF2-bound 30S IC; nucleotide 20.00 µM,1013.59 a.u. and 1013.77 a.u. and 1012.79 a.u.
same,Kd,"IF2-bound 30S IC; nucleotide titration at constant IF2 (1 μM), read-out: KD for the IF2-bound 30S IC",0.5 ± 0.1 µM
same,kapp of 70S pre-IC formation (LS),[2],2.9 ± 0.3 s^–1
same,kapp of Bpy-tRNAi accommodation (70S IC formation),"70S IC; 30S ICs formed with 0.2 mM nucleotide, mixed with 50S subunits",1.2 ± 0.2 s^–1
same,Bpy-tRNAi accommodation slower than with GTP,70S IC; compared to GTP-bound IF2,2 fold
